The text below walks through data of US20090035306A1 (KALYPSYS, INC., priority 2006, published 2009).

The experiment has as its system Mice. Description: In vivo GLP-1 secretion (GLP-1 protocol and GLP-1 assay). Also on record: species or system mouse. To be noted: 30 mg/kg, portal vein blood. As to the method: Vehicle is CMC-Tween: 0.5% CMC+0.25% Tween 20 at an appropriate ml/kg. Dextrose dose per mouse=2 g dextrose/kg made from 0.5 g/ml stock dextrose solution. Compound 1 dose per mouse=30 mg/kg in CMC/Tween vehicle made from 4 mg/mL stock solution by adding 50 μL DMSO to 20 mg Compound 1, stirring to make a paste, adding 1 ml CMC/Tween with stirring, sonicating for 8 minutes on energy 05, and adjusting to 5 ml with CMC/Tween.
Mice (3 per group) were fasted at 6 am for an experiment at noon. Blood glucose was measured from tail nick blood using an Accucheck—Compact Monitoring Kit (Roche Diagnostics, Indianapolis Ind.). Baseline (time=−15 min) blood glucose concentration was determined for all mice. 2 g/kg dextrose (Hospira, Lake Forest, Ill.) was administered orally at time 0. Terminal blood samples were collected from the mice via portal vein draw (˜500 μL) into EDTA microtainer tubes at the following time points: −15, 0, 3, 6, 9, 12, 15, 20, 30 and 120 min. […] Plasma was stored in −80 C freezer to be analyzed for other chemistry measurements.
A GLP-1(Human, Mouse, Rat) ELA kit was used (ALPCO Diagnostics, Salem, N.H., Cat # 48-GLP-1-160) was used in a 96-well plate. […] 100 μl/well stop solution was added to each well to stop reaction, optical absorbance of wells read at 490 nm, and results calculated.

Consider `O=c1c2ccccc2nc(-c2ccc(F)cc2)n1NCc1ccc(Br)cc1` [Example 1], for which the “Plasma GLP-1, Mean” value came to 9.61 ng/mL (2 g/kg dextrose orally at time 0, time 20 min) and 6.30 ng/mL (2 g/kg dextrose orally at time 0, time −15 min (baseline)).
